This note sets out measurements from US8674118B2, “Compounds and methods for the treatment or prevention of flavivirus infections” (priority 2005, dated 2014).

A value given as a limit tells only on which side of the number the result lay.

The subject of the first experiment is HCV RNA replication (replicon cell lines Huh-7, 5.2 and ET). The experiment is described as follows: Cell-Based Luciferase Reporter HCV RNA Replication Assay. Particulars: Hepatitis C virus, Huh-7, 96 h.
What is called IC50 is the point on the concentration scale where inhibition reaches its midpoint. In turn, `CCON=C1CCC(N(c2cc(C3=CCCCC3)sc2C(=O)O)C(=O)[C@H]2CC[C@H](C)CC2)CC1` (relative stereo) [Compound 54, 5-cyclohex-1-enyl-3-[(4-ethoxyimino-cyclohexyl)-(trans-4-methyl-cyclohexanecarbonyl)-amino]-thiophene-2-carboxylic acid] came in with an IC50 of less than 5 µM.

Still in this experiment, the particulars now being: Hepatitis C virus, Huh-7, 96 h, Huh-7, 5.2 or ET replicon cells, luciferase counts after 4 days incubation; read-out: IC50.
Regarding `CC1CCC(C(=O)N(c2cc(C3=CCCCC3)sc2C(=O)O)C2CCC3CCCCC3C2)CC1` (mixture of isomers) [Compound 65, 5-cyclohex-1-enyl-3-[(cis/trans-decahydro-naphthalen-2-yl)-(4-trans-methyl-cyclohexanecarbonyl)-amino]-thiophene-2-carboxylic acid], the IC50 was less than 5 µM.

Regarding `CC1CCC(C(=O)N(c2cc(C3CCC(O)CC3)sc2C(=O)O)C2CCC(O)CC2)CC1` (mixture of isomers) [Compound 85, 5-(4-cis/trans-hydroxy-cyclohexyl)-3-[(4-trans-hydroxy-cyclohexyl)-(4-trans-methyl-cyclohexanecarbonyl)-amino]-thiophene-2-carboxylic acid], the IC50 is 5 to 25 µM.

On to `COCC1CCC(N(C(=O)C2CCC(C)CC2)c2cc(C3=CCCCC3)sc2C(=O)O)CC1` (mixture of isomers) [Compound 126, 5-cyclohex-1-enyl-3-[(4-cis/trans-methoxymethyl-cyclohexyl)-(4-trans-methyl-cyclohexanecarbonyl)-amino]-thiophene-2-carboxylic acid], for which the IC50 is less than 5 µM.

As for `CC1CC=C(c2cc(N(C(=O)[C@H]3CC[C@H](C)CC3)[C@H]3CC[C@H](O)CC3)c(C(=O)O)s2)CC1` (relative stereo) [Compound 4, 3-[(trans-4-Hydroxy-cyclohexyl)-(trans-4-methyl-cyclohexanecarbonyl)-amino]-5-(4-methyl-cyclohex-1-enyl)-thiophene-2-carboxylic acid], the IC50 is less than 5 µM.

As for `CC(C)(C)C1CC=C(c2cc(N(C(=O)[C@H]3CC[C@H](C)CC3)[C@H]3CC[C@H](O)CC3)c(C(=O)O)s2)CC1` (relative stereo) [Compound 13, 5-(4-Tert-butyl-cyclohex-1-enyl)-3-[(trans-4-hydroxy-cyclohexyl)-(trans-4-methyl-cyclohexanecarbonyl)-amino]-thiophene-2-carboxylic acid], the IC50 was less than 5 µM.

With `C[C@H]1CC[C@H](C(=O)N(c2cc(C3=CCCCC3)sc2C(=O)O)C2CCC(OC(=O)N3CCOCC3)CC2)CC1` (relative stereo) [Compound 18, Morpholine-4-carboxylic acid 4-[(2-carboxy-5-cyclohex-1-enyl-thiophen-3-yl)-(trans-4-methyl-cyclohexanecarbonyl)-amino]-cyclohexyl ester], the 50% inhibitory concentration (IC50) is less than 5 µM.

For the compound `COC(=O)C(NC(=O)O[C@H]1CC[C@H](N(c2cc(C3=CCCCC3)sc2C(=O)O)C(=O)[C@H]2CC[C@H](C)CC2)CC1)C(C)C` (relative stereo) [Compound 19, 5-Cyclohex-1-enyl-3-[[trans-4-(1-methoxycarbonyl-2-methyl-propylcarbamoyloxy)-cyclohexyl]-(trans-4-methyl-cyclohexanecarbonyl)amino]-thiophene-2-carboxylic acid], the IC50 was less than 5 µM.

As for `CN1C(=O)N(C)C2(CCC(N(c3cc(C4=CCCCC4)sc3C(=O)O)C(=O)[C@H]3CC[C@H](C)CC3)CC2)C1=O` (relative stereo) [Compound 32, 5-cyclohex-1-enyl-3-[(1,3-dimethyl-2,4-dioxo-1,3-diaza-spiro[4.5]dec-8-yl)-(trans-4-methyl-cyclohexanecarbonyl)-amino]-thiophene-2-carboxylic acid], the IC50 was less than 5 µM.

As for `C[C@H]1CC[C@H](C(=O)N(c2cc(C3=CCC(Oc4ccccc4)CC3)sc2C(=O)O)[C@H]2CC[C@H](O)CC2)CC1` (relative stereo) [Compound 33, 3-[(trans-4-hydroxy-cyclohexyl)-(trans-4-methyl-cyclohexanecarbonyl)-amino]-5-(4-phenoxy-cyclohex-1-enyl)-thiophene-2-carboxylic acid], the IC50 is less than 5 µM.

For `CC1OCC(N(c2cc(C3=CCCCC3)sc2C(=O)O)C(=O)[C@H]2CC[C@H](C)CC2)CO1` (relative stereo) [Compound 36, 5-cyclohex-1-enyl-3-[(trans-4-methyl-cyclohexanecarbonyl)-(2-methyl-[1,3]dioxan-5-yl)-amino]-thiophene-2-carboxylic acid], the IC50 was less than 5 µM.

For the compound `CC1CCCC(N(c2cc(C3=CCCCC3)sc2C(=O)O)C(=O)[C@H]2CC[C@H](C)CC2)C1` (relative stereo) [Compound 39, 5-cyclohex-1-enyl-3-[(trans-4-methyl-cyclohexanecarbonyl)-(3-methyl-cyclohexyl)-amino]-thiophene-2-carboxylic acid], the half-maximal inhibitory concentration (IC50) is less than 5 µM.

In the case of `C[C@H]1CC[C@H](C(=O)N(c2cc(C3=CCCCC3)sc2C(=O)O)C2CC3CCC(C3)C2)CC1` (relative stereo) [Compound 40, 3-[bicyclo[3.2.1]oct-3-yl-(trans-4-methylcyclohexanecarbonyl)-amino]-5-cyclohex-1-enyl-thiophene-2-carboxylic acid], the IC50 was less than 5 µM.

As for `CC1CC=C(c2cc(N(C(=O)[C@H]3CC[C@H](C)CC3)C(C)C)c(C(=O)O)s2)CC1` (relative stereo) [Compound 43, 3-[isopropyl-(trans-4-methyl-cyclohexanecarbonyl)-amino]-5-(4-methyl-cyclohex-1-enyl)-thiophene-2-carboxylic acid], the IC50 is less than 5 µM.

For `C[C@H]1CC[C@H](C(=O)N(c2cc(C3=CC(O)CCC3)sc2C(=O)O)[C@H]2CC[C@H](OC3CCCCO3)CC2)CC1` (relative stereo) [Compound 55, 5-(3-hydroxy-cyclohex-1-enyl)-3-{(trans-4-methyl-cyclohexanecarbonyl)-[trans-4-(tetrahydro-pyran-2-yloxy)-cyclohexyl]amino}-thiophene-2-carboxylic acid], the IC50 was less than 5 µM.

For the compound `C[C@H]1CC[C@H](C(=O)N(c2cc(C3=CCCCC3)sc2C(=O)O)C2CC[S+]([O-])CC2)CC1` (relative stereo) [Compound 69, 5-cyclohex-1-enyl-3-[(trans-4-methyl-cyclohexanecarbonyl)-(1-oxo-hexahydro-1lambda*4*-thiopyran-4-yl)-amino]-thiophene-2-carboxylic acid], the IC50 is less than 5 µM.

For `CN1C(=O)N(C)C2(CCC(N(c3cc(C4=CCC(C)(C)CC4)sc3C(=O)O)C(=O)[C@H]3CC[C@H](C)CC3)CC2)C1=O` (relative stereo) [Compound 75, 5-(4,4-dimethyl-cyclohex-1-enyl)-3-[(1,3-dimethyl-2,4-dioxo-1,3-diaza-spiro[4.5]dec-8-yl)-(trans-4-methyl-cyclohexanecarbonyl)-amino]-thiophene-2-carboxylic acid], the IC50 was less than 5 µM.

As to `CN1C(=O)N(C)C2(CCC(N(c3cc(C4CCC(C)(C)CC4)sc3C(=O)O)C(=O)[C@H]3CC[C@H](C)CC3)CC2)C1=O` (relative stereo) [Compound 79, 5-(4,4-dimethyl-cyclohexyl)-3-[(1,3-dimethyl-2,4-dioxo-1,3-diaza-spiro[4.5]dec-8-yl)-(trans-4-methyl-cyclohexanecarbonyl)-amino]-thiophene-2-carboxylic acid], the IC50 is less than 5 µM.

`C[C@H]1CC[C@H](C(=O)N(c2cc(C3=CC(O)CCC3)sc2C(=O)O)[C@H]2CC[C@H](O)CC2)CC1` (relative stereo) [Compound 82, 5-(3-hydroxy-cyclohex-1-enyl)-3-[(trans-4-hydroxy-cyclohexyl)-(trans-4-methyl-cyclohexanecarbonyl)-amino]-thiophene-2-carboxylic acid]: the IC50 was in the range of 5 to 25 µM.

For the compound `CO[C@H]1CC[C@H](N(c2cc(C3CCC(C(F)(F)F)CC3)sc2C(=O)O)C(=O)[C@H]2CC[C@H](C)CC2)CC1` (relative stereo) [Compound 108, 3-[(trans-4-methoxy-cyclohexyl)-(trans-4-methyl-cyclohexanecarbonyl)-amino]-5-(4-trifluoromethyl-cyclohexyl)-thiophene-2-carboxylic acid], the half-maximal inhibitory concentration (IC50) is less than 5 µM.

For the compound `CO[C@H]1CC[C@H](N(c2cc(C3=C(F)CCCC3F)sc2C(=O)O)C(=O)[C@H]2CC[C@H](C)CC2)CC1` (relative stereo) [Compound 119, 5-(2,6-difluoro-cyclohex-1-enyl)-3-[(trans-4-methoxy-cyclohexyl)-(trans-4-methyl-cyclohexanecarbonyl)-amino]-thiophene-2-carboxylic acid], the IC50 is less than 5 µM.

As for `CO[C@H]1CC[C@H](N(c2cc(C3=C(F)C(F)CCC3)sc2C(=O)O)C(=O)[C@H]2CC[C@H](C)CC2)CC1` (relative stereo) [Compound 120, 5-(2,3-difluoro-cyclohex-1-enyl)-3-[(trans-4-methoxy-cyclohexyl)-(trans-4-methyl-cyclohexanecarbonyl)-amino]-thiophene-2-carboxylic acid], the IC50 was less than 5 µM.

Consider `CO[C@H]1CC[C@H](N(c2cc(C3=CCC(C(F)(F)F)CC3)sc2C(=O)O)C(=O)[C@H]2CC[C@H](C)CC2)CC1` (relative stereo) [Compound 124, 3-[(trans-4-methoxy-cyclohexyl)-(trans-4-methyl-cyclohexanecarbonyl)-amino]-5-(4-trifluoromethyl-cyclohex-1-enyl)-thiophene-2-carboxylic acid], for which the IC50 was less than 5 µM.

For `CCC(=O)N(C)C1CCC(N(c2cc(C3=CCCCC3)sc2C(=O)O)C(=O)[C@H]2CC[C@H](C)CC2)CC1` (relative stereo) [Compound 140, 5-cyclohex-1-enyl-3-{(trans-4-methyl-cyclohexanecarbonyl)-[4-(methyl-propionyl-amino)-cyclohexyl]-amino}-thiophene-2-carboxylic acid], the IC50 was less than 5 µM.

Turning to `C[C@H]1CC[C@H](C(=O)N(c2cc(C3=CCCCC3)sc2C(=O)O)[C@H]2CC[C@H](O)CC2)CC1` [Compound 1, 5-Cyclohex-1-enyl-3-[(trans-4-hydroxy-cyclohexyl)-(trans-4-methyl-cyclohexanecarbonyl)-amino]-thiophene-2-carboxylic acid], the IC50 was less than 5 µM.
